Data on three molecules can be found in patent publication US20160046616A1, “NRF2 SMALL MOLECULE INHIBITORS FOR CANCER THERAPY” (THE JOHNS HOPKINS UNIVERSITY, priority 2013, published 2016).

Entries after “also recorded” stand apart in the source; their conditions may differ.

Test [1] has as its system mRNA expression of Nrf2 and its downstream target genes, GCLm and NQO1, A549 cells. As to the kind of experiment: Real time RT-PCR of Nrf2 and downstream target genes in A549 cells. The test is classed as cell-based. The following applies: for NRF2 signaling, fold change in mRNA by real time RT-PCR / Nrf2 (and GCLm, NQO1) expression, real time PCR based validation: A549 cells; for NRF2 signaling, fold change in mRNA by real time RT-PCR: 48 h (compounds 1, 3), 72 h (compound 4). The protocol: […] The mRNA expression of Nrf2 and its downstream target genes, GCLm and NQO1 was measured by RT-PCR. (NC means no significant change in gene expression in comparison with vehicle group; M represents the concentration of drug used in the gene expression studies and it is twice the IC50 values generated from primary screening with A549-ARE reporter cell lines).
(Real-time PCR tracks product formation cycle by cycle.)

Test [2] relates to pancreatic cancer cells (Panc1). As to the kind of experiment: Clonogenic assay in Panc1 pancreatic cancer cells. The format is cell-based. The following applies: for Growth of Panc1 cells, combination with gemcitabine: gemcitabine (10 nM in figure legends). The protocol: (A-B) Panc1 and MiaPaCa cells were treated gemcitabine (10 nM) singly or in combination with compound 1 for 72 h. At the end of treatment, regular growth media was added and cells were further incubated for 8-10 days and stained with crystal violet;
For the clonogenic assays, 1,000 cells/well were plated in a 6-well plate. The next day, the cells were treated with vehicle (DMSO), Nrf2 inhibitor, a chemotherapeutic drug, or a combination of Nrf2 and chemotherapeutic drugs for 48 hrs. The drug containing media was then replaced with regular growth media and the cells were incubated for an additional 10 days. At the end of incubation period, the colonies were stained with Crystal Violet and imaged.

The subject of test [3] is H1437 NRF2-ARE-Fluc stable cell line. As to the kind of experiment: H1437 Nrf2 assay: NRF2-ARE firefly luciferase reporter gene assay. The format is cell-based. The following applies: Homo sapiens, NCI-H1437, H1437 NRF2-ARE-Fluc stable cell line; read-out: Potency of inhibition, H1437. A general note: Reporter assays use an easily measured gene product as a stand-in for the process of interest.

The subject of test [4] is A549 NRF2-ARE-Fluc stable cell line. As to the kind of experiment: A549 Nrf2 assay: NRF2-ARE firefly luciferase reporter gene assay. The format is cell-based. The settings on record: Homo sapiens, read-out: Potency of inhibition, A549. Summed up: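 A549 cells (Keap1 loss-of-function, constitutive NRF2) stably carrying ARE-driven firefly luciferase; compound treatment 18–24 h at 37 °C, 0.46% DMSO final.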

The test system of a further test is A549 xenograft tumors. As to the kind of experiment: A549 lung cancer xenograft assay (flank). The settings on record: for A549 tumor weight at end of treatment, combination with carboplatin / A549 tumor weight at end of treatment, single agent: compared to vehicle group; for Growth of A549 xenograft tumors, combination with carboplatin / Growth of A549 xenograft tumors, single agent: nude mice, flank; for Growth of A549 xenograft tumors, single agent / Efficacy of compound alone relative to carboplatin, A549 tumors: single agent. The format is in vivo, athymic nude mice. The protocol:
A549 cells were injected in the flanks of athymic nude mice and once tumor volume reached 50-100 mm^3, treatment was initiated. Vehicle, carboplatin (5 mg/kg daily Monday to Friday), compound 4 (30 mg/kg daily Monday to Friday) or a combination of compound 4 and carboplatin was administered for three weeks. Values represent tumor volume ±s.e.m. for all groups (A). […] Tumors were excised and weight at the end of treatment period. […] For each group, pretreatment available lung volume was defined as 100% and compared with post-treatment lung volumes. Mice in the vehicle treated group died at 3 weeks;
A549 cells were injected in the flanks of athymic nude mice and once tumor volume reached 50-100 mm^3, treatment was initiated. Vehicle, carboplatin (20 mg/kg; 2 days/week), compound#1 (20 mg/kg 4 days/week) or a combination of compound 1 and carboplatin was administered for four weeks. Values represent tumor volume ±s.e.m. for all groups. […] Tumors were excised and weight at the end of treatment period. […] H460 cells were injected in the flanks of athymic nude mice and once tumor volume reached 50-100 mm^3, treatment was initiated. Vehicle, carboplatin (10 mg/kg; 5 days/week), compound 1 (30 mg/kg 5 days/week) or a combination of compound 1 and carboplatin was administered for three weeks. Values represent tumor volume ±s.e.m.;
A549 cells were injected in the flanks of athymic nude mice and once tumor volume reached 50-100 mm^3, treatment was initiated. Vehicle, carboplatin (10 mg/kg; 5 days/week), compound 3 (60 mg/kg 4 days/week) or a combination of compound 3 and carboplatin was administered for 15 days. Tumor growth was monitored till 28 days. Values represent tumor volume ±s.e.m. for all groups. […] Values represent tumor volume ±s.e.m.;
For the A549 lung cancer xenograft assay, five million cells in 100 μL of PBS were implanted in the flank of nude mice. Two to three weeks post cell implantation, when the tumors were about 50 to 100 mm^3 in dimension, the mice were randomly divided into four groups: vehicle, chemotherapeutic drug, Nrf2 inhibitor, and chemotherapeutic drug with an Nrf2 inhibitor. The mice were treated with the drugs for 2 to 4 weeks. Tumor volume was recorded biweekly.

For the molecule `O=C(Nc1ncc(Cc2ccc(C(F)(F)F)cc2)s1)c1ccc(-c2cccc([N+](=O)[O-])c2)o1` [Compound 1], the “NRF2 signaling, fold change in mRNA by real time RT-PCR” value (“NRF2 signaling, fold change in mRNA” below) in test [1] was “inhibit NRF2 signaling”. Further, the “Nrf2, GCLm, and NQO1 gene expression, real time PCR based validation assay” value in test [1] (cell line not given) was “decrease in Nrf2, GCLm, and NQO1 gene expression”. Besides, in test [2], the “Growth of Panc1 cells, single agent” value is listed as “suppressed the growth of two different pancreatic cell lines” and the “Growth of Panc1 cells, combination with gemcitabine” value (shortened to “Growth of Panc1 cells, combination”) is given as “enhance the cytotoxicity of gemcitabine; also recorded: potentiates the cytotoxicity of standard care chemotherapy drugs (gemcitabine)”. In addition, in test [3], the IC50 was less than 5 µM. Besides, the IC50 in test [4] was 5 to 25 µM. Also, in the test with A549 xenograft tumors, the “A549 tumor weight at end of treatment, combination with carboplatin” value is listed as “significantly reduced tumor weight”; the “A549 tumor weight at end of treatment, single agent” value is on record as “significantly reduced tumor weight”; the “Growth of A549 xenograft tumors, combination with carboplatin” value is given as “showed inhibition of A549 xenograft tumors; also recorded: sensitized A549 lung tumors to carboplatin therapy”; the “Growth of A549 xenograft tumors, single agent” value was “showed inhibition of A549 xenograft tumors; also recorded: shows anti-tumor activity as a single agent”. For the same molecule, the “Efficacy of compound alone relative to carboplatin, A549 tumors” value with A549 xenograft tumors is given as “comparable to carboplatin”.
On to `Cc1ccccc1C(=O)N1CCc2cc(-c3nc(NC(=O)Cc4ccc5c(c4)OCO5)sc3C)ccc21` [compound 4], for which, in test [1] (5 μM), the “NRF2 and its target genes, time course” value was “Time dependent reduction in NRF2 and its target genes”. Further, in test [1], the “Nrf2 (and GCLm, NQO1) expression, real time PCR based validation” value is “significant reduction in Nrf2, GCLm, and NQO1 expression”; the “NRF2 signaling, fold change in mRNA” value is reported as “inhibits NRF2 signaling”. In test [2], the “Growth of Panc1 cells, single agent” value was “suppressed the growth of two different pancreatic cell lines; also recorded: significant growth inhibitory activity as single agent” and the “Growth of Panc1 cells, combination” value is “enhance the cytotoxicity of gemcitabine; also recorded: potentiates the cytotoxicity of standard care chemotherapy drugs (gemcitabine)”. In addition, the IC50 in test [3] is less than 5 µM. For the same molecule, in test [4], the IC50 was less than 5 µM. In the test with A549 xenograft tumors, the “A549 tumor weight at end of treatment, combination with carboplatin” value is recorded as “significantly reduced tumor weight”; the “A549 tumor weight at end of treatment, single agent” value was “significantly reduced tumor weight”; the “Growth of A549 xenograft tumors, combination with carboplatin” value is “tumor size and tumor weight was reduced; also recorded: sensitized A549 lung tumors to carboplatin therapy”; the “Growth of A549 xenograft tumors, single agent” value is “tumor size and tumor weight was reduced; also recorded: shows anti-tumor activity as a single agent”. Further, the “Efficacy of compound alone relative to carboplatin, A549 tumors” value in the test with A549 xenograft tumors was “comparable to carboplatin”.
As for `CC1(C)CC2CC(C)(CN2S(=O)(=O)c2ccc(C(=O)Nc3ccc(Cl)c(S(=O)(=O)N4CCOCC4)c3)cc2)C1` (stereo not shown) [compound 3], the “NQO1 and GCLm expression, real time PCR” value in test [1] (A549 and H1437 cells) is given as “Inhibition of NQO1 expression as well as some inhibition of GCLm expression”. Moreover, in test [1], the “Nrf2 (and GCLm, NQO1) expression, real time PCR based validation” value was “inhibit Nrf2 expression” and the “NRF2 signaling, fold change in mRNA” value is listed as “inhibit NRF2 signaling”. For the same molecule, in test [2], the “Growth of Panc1 cells, single agent” value is listed as “suppressed the growth of two different pancreatic cell lines; also recorded: significant growth inhibitory effect as a single agent” and the “Growth of Panc1 cells, combination” value is reported as “enhance the cytotoxicity of gemcitabine”. Besides, the IC50 in test [3] is less than 5 µM. Further, the IC50 in test [4] is less than 5 µM. In the test with A549 xenograft tumors (compound 60 mg/kg 4 days/week + carboplatin 10 mg/kg 5 days/week for 15 days), the “A549 tumor growth at Day 43, 4 weeks from the end of treatment, combination with carboplatin” value was “significant growth retardation as compared to group treated with single agent”. In the test with A549 xenograft tumors, the “Growth of A549 xenograft tumors, combination with carboplatin” value is “inhibited the growth; also recorded: sensitized A549 lung tumors to carboplatin therapy”; the “Growth of A549 xenograft tumors, single agent” value is reported as “inhibited the growth; also recorded: significantly attenuated tumor growth till 28 days”; the “Efficacy of compound alone relative to carboplatin, A549 tumors” value is “comparable to carboplatin”.
